According to ChEMBL document CHEMBL1127611 (J Med Chem, 1994):

Molecular target: T1, Vesicular acetylcholine transporter (Torpedo californica, UniProt P81721)
T1 sequence (P81721 whole entry): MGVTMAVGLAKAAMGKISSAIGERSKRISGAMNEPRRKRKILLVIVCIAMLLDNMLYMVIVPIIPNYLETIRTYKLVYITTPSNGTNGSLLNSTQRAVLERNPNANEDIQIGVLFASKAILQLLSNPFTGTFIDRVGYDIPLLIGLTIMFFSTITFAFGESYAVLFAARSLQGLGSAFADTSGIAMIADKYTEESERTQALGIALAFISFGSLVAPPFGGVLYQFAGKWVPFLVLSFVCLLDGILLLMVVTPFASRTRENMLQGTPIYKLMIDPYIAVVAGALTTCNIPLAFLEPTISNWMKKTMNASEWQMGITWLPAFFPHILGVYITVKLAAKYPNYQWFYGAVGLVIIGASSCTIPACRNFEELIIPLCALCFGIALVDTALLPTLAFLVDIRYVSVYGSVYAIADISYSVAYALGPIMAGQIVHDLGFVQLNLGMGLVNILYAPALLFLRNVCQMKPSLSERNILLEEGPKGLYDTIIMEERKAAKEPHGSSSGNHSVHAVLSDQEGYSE
Assay: In vitro binding affinity to vesamicol receptor using [3H]vesamicol.
Design: species or system Tetronarce californica

Row | SMILES | Ki [nM]
1 | Nc1cccc2c1C[C@@H](N1CCC(c3ccccc3)CC1)[C@H](O)C2 | 0.0065
2 | O[C@@H]1Cc2ccccc2C[C@H]1N1CCC2(CC1)C(Br)=Cc1ccccc12 | 0.41
3 | O[C@@H]1CCN(Cc2ccc(F)cc2)C[C@H]1N1CCC2(C=Cc3ccccc32)CC1 | 0.248
4 | O[C@@H]1CCCC[C@H]1N1CCC2(CCCc3ccccc32)CC1 | 24.2
5 | O[C@@H]1CCCC[C@H]1N1CCC2(C=Cc3ccccc32)CC1 | 6.93
6 | O[C@@H]1CCN(Cc2ccccc2I)C[C@H]1N1CCC2(C=Cc3ccccc32)CC1 | 0.798
7 | O[C@@H]1CCN(Cc2ccccc2I)C[C@H]1N1CCC(c2ccccc2)CC1 | 0.147
8 | O[C@@H]1CCCC[C@H]1N1CCC2(CCc3ccccc32)CC1 | 7.59
9 | O[C@@H]1CCN(Cc2ccc(I)cc2)C[C@H]1N1CCC2(C=Cc3ccccc32)CC1 | 0.762
10 | O[C@@H]1Cc2ccccc2C[C@H]1N1CCC2(CCc3ccccc32)CC1 | 0.36
11 | O[C@@H]1Cc2ccccc2C[C@H]1N1CCC2(C=Cc3ccc(Br)cc32)CC1 | 1.4
12 | O[C@@H]1CCN(Cc2ccc(F)cc2)C[C@H]1N1CCC2(CCc3ccccc32)CC1 | 0.36
13 | O[C@@H]1CCN(Cc2cccc(I)c2)C[C@H]1N1CCC2(CCCc3ccccc32)CC1 | 0.856
14 | O[C@@H]1CCN(Cc2cccc(I)c2)C[C@H]1N1CCC2(C=Cc3ccccc32)CC1 | 0.264
15 | O[C@@H]1CCN(Cc2ccccc2I)C[C@H]1N1CCC2(CCCc3ccccc32)CC1 | 5.8
16 | O[C@@H]1Cc2ccccc2C[C@H]1N1CCC2(C=Cc3c(Br)cccc32)CC1 | 0.212
17 | O[C@@H]1Cc2ccccc2C[C@H]1N1CCC2(CCCc3ccccc32)CC1 | 18.4
18 | O[C@@H]1CCN(Cc2ccc(F)cc2)C[C@H]1N1CCC2(CCCc3ccccc32)CC1 | 2.64
19 | O[C@@H]1CCN(Cc2ccc(I)cc2)C[C@H]1N1CCC(c2ccccc2)CC1 | 0.05
20 | O[C@@H]1Cc2ccccc2C[C@H]1N1CCC2(C=Cc3cc(Br)ccc32)CC1 | 0.271
21 | O[C@@H]1CCN(Cc2cccc(I)c2)C[C@H]1N1CCC(c2ccccc2)CC1 | 0.063
22 | O[C@@H]1CCN(Cc2ccc(I)cc2)C[C@H]1N1CCC2(CCCc3ccccc32)CC1 | 0.638
23 | O[C@@H]1Cc2ccccc2C[C@H]1N1CCC2(C=Cc3ccccc32)CC1 | 0.121
24 | O[C@@H]1CCN(Cc2ccccc2I)C[C@H]1N1CCC2(CCc3ccccc32)CC1 | 0.98
25 | O[C@@H]1CCN(Cc2ccc(I)cc2)C[C@H]1N1CCC2(CCc3ccccc32)CC1 | 0.8
